In patent publication US20220274938A1, “5-[(1S)-1-(4-BROMOPHENOXY)ETHYL]-2H-TETRAZOLE DERIVATIVES AND RELATED COMPOUNDS AS CLC-1 ION CHANNEL INHIBITORS FOR TREATING NEUROMUSCULAR DISORDERS” (NMD PHARMA A/S, priority 2019, published 2022):

Target: T1, CIC-1 ion channel (Rattus norvegicus, UniProt P35524)
T1 construct: CIC-1 channels in native tissue of rat skeletal muscle fibres; from tissue; host or cells: whole soleus muscle of 12-14 week old Wistar rats
T1 sequence (P35524 1-994): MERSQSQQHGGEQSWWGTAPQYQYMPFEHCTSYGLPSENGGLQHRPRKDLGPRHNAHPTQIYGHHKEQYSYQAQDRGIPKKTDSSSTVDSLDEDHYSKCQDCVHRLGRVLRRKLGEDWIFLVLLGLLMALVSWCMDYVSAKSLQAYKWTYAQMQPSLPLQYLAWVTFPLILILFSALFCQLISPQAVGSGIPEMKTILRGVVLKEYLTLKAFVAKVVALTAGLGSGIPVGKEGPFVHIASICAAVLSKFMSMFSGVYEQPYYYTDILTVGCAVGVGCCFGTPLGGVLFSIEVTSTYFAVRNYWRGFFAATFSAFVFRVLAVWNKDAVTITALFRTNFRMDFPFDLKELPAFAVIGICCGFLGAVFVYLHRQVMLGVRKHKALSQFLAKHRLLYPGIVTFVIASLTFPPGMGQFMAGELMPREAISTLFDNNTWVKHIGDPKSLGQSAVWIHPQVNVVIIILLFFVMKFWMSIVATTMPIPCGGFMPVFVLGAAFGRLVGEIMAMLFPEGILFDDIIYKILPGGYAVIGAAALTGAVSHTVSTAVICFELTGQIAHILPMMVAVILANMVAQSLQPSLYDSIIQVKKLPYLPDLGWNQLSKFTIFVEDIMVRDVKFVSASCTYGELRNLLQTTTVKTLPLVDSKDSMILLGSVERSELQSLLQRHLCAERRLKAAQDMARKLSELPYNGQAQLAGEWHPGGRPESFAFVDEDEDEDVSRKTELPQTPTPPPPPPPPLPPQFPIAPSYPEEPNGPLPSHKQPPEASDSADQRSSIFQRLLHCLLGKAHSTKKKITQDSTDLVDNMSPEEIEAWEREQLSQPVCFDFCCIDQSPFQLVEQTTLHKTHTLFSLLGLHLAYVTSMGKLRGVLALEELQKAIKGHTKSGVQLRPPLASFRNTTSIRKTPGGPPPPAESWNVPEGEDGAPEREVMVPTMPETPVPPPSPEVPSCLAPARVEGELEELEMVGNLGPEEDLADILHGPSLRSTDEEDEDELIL
Assay: Electrophysiological measurement (Gm, three micro-electrodes) of compound inhibition of CIC-1 in rat soleus muscle fibres
Assay type: cell-based
Conditions: approx. 30° C., four increasing compound concentrations, read-out: EC50 (inhibition of CIC-1 ion channel, reduction of Gm)
From the text: FIG. 1. […] Please note that the drawing illustrates only the impaled fibre although it is part of an intact muscle that contains many such fibres. All electrodes recorded the membrane potential of the fibre and the two peripheral electrodes were used to inject current (−30 nA, 50 ms). The electrodes were inserted with known inter-electrode distances (X1, X2 and X3). After insertion, current was passed first via the V1 electrode and then via the V3 electrode. The resulting deflections in the membrane voltage were measured by the other electrodes. The steady state deflections in membrane potential were measured and divided by the magnitude of the injected current (−30 nA) to obtain transfer resistances. These were next plotted against inter-electrode distances, and fitted to an exponential function (Panel B), from which Gm could be calculated using linear cable theory. The approach described in panel A and B, was repeated for several muscle fibres in the muscle during exposure at increasing concentrations of compound E-8, with approx. 10 fibres at each concentration. Average Gm at each concentration was plotted as a function of compound concentration in panel C, and fitted to a 4-parameter sigmoidal function from which the EC50 value for the compound was obtained (dashed line)
Apparent CIC-1 affinity was reported by the concentration of compound at which 50% of the compound's full inhibition of CIC-1 was observed (EC50).
CIC-1 Cl^− ion channels generate around 80% of the total membrane conductance (Gm) in resting skeletal muscle fibres of most animals including rat and human (Bretag, A H. Muscle chloride channels. Physiological Reviews, 1987, 67, 618-724). […] CIC-1 inhibition would in such recordings be reflected by a reduction of Gm.
Experimentally, Gm was measured in individual fibres of whole rat soleus muscles using a three micro-electrodes technique described in this example and in full detail elsewhere (Riisager et al., Determination of cable parameters in skeletal muscle fibres during repetitive firing of action potentials. Journal of Physiology, 2014, 592, 4417-4429). Briefly, intact rat soleus muscles were dissected out from 12-14 week old Wistar rats and placed in an experimental chamber that was perfused with a standard Krebs Ringer solution containing 122 mM NaCl, 25 mM NaHCO3, 2.8 mM KCl, 1.2 mM KH2PO4, 1.2 mM MgSO4, 1.3 mM CaCl2, 5.0 mM D-glucose. During experiments, the solution was kept at approx. 30° C. and continuously equilibrated with a mixture of 95% O2 and 5% CO2, pH˜7.4. The experimental chamber was placed in Nikon upright microscope that was used to visualize individual muscle fibres and the three electrodes (glass pipettes filled with 2 M potassium citrate). For Gm measurements, the electrodes were inserted into the same fibre with known inter-electrode distances of 0.35-0.5 mm (V1-V2, X1) and 1.1-1.5 mm (V1-V3, X3) (FIG. 1A). The membrane potential of the impaled muscle fibre was recorded by all electrodes. Two of the electrodes were furthermore used to inject 50 ms current pulses of −30 nA. […] The steady state voltage deflection at each distance was divided by the magnitude of current injected (−30 nA) and the resulting transfer resistances were plotted against inter-electrode distance and the data was fitted to a mono-exponential function from which Gm could be calculated using linear cable theory (FIG. 1B).
To establish a dose response relationship, Gm was first determined in 10 muscle fibres in the absence of compound and then at four increasing compound concentrations with Gm determinations in 5-10 fibres at each concentration. The average Gm values at each concentration were plotted against compound concentration and the data was fitted to sigmoidal function to obtain an EC50 value (FIG. 1C).

Structure (SMILES)	EC50 [µM]
C[C@H](Oc1ccc(Cl)cc1)C(=O)NOC1CCC1 [Compound C-80, (2S)-2-(4-chlorophenoxy)-N-cyclobutoxypropanamide]	2.6
C[C@H](Oc1ccc(Br)cc1F)c1nn[nH]n1 [Compound E-8, 5-[(1S)-1-(4-bromo-2-fluorophenoxy)ethyl]-2H-1,2,3,4-tetrazole]	6.6
